How the values were obtained:
α1-adrenergic receptors = assay: α1-adrenoceptor radioligand binding assay ([3H]-prazosin, rat cortex); conditions: rat cortex tissue, mean ± SEM
Method: (§1) The α1- and α2-adrenoceptor radioligand binding assays were performed on the rat cerebral cortex using previously described methods. […] The brains were homogenized using the ULTRA-TURRAX homogenizer in 10 mL of an ice-cold 50 mM Tris-HCl buffer (pH 7.6). The homogenates were centrifuged at 20,000× g for 20 min (0–4 °C). Subsequently, the cell pellet was resuspended in the Tris–HCl buffer and centrifuged again. Radioligand binding assays were carried out in plates (MultiScreen/Millipore). The final incubation mixture, with a volume of 300 μL, consisted of 240 μL of the tissue suspension, 30 μL of the radioligand solution, and 30 μL of the buffer containing 7–8 concentrations of the studied compounds. In order to measure the unspecific binding, 10 μM phentolamine (for [^3H]-prazosin) or 10 μM clonidine (for [^3H]-clonidine) were utilized. The incubation was completed by rapid filtration through Whatman GF/C filters using a vacuum manifold (Millipore). The filters were then washed twice with the assay buffer and placed in scintillation vials with a liquid scintillation cocktail. Radioactivity was measured in a WALLAC 1409 DSA liquid scintillation counter (Perkin Elmer, USA). All the assays were performed in duplicates, and the inhibitory constants (Ki) were calculated.

[1] = test system: adrenaline-induced arrhythmia model in rats; assay: Prophylactic antiarrhythmic activity in adrenaline-induced arrhythmia; format: in vivo, rat; conditions: for Blocks / Bradycardia / Extrasystoles / Mortality: number of animals with event
Method: (§2) The animals were anesthetized with thiopental (75 mg/kg ip). Depending on the model, either adrenaline, aconitine, or calcium chloride was used as an arrhythmogen. Adrenaline and aconitine were administered iv at a dose of 20 µg/kg, whereas calcium chloride was administered at a dose of 140 mg/kg to induce heart rhythm disturbances. The tested compounds were injected iv 15 min before the arrhythmogen. Aspel ASCARD apparatus (standard II lead, with the tape speed 50 mm/s and voltage calibration 1 mV = 1 cm) was used for ECG measurements. […] The ED50 was calculated using the method of Litchfield and Wilcoxon.

[2] = test system: calcium chloride-induced arrhythmia model in rats; assay: Prophylactic antiarrhythmic activity in calcium chloride-induced arrhythmia; format: in vivo, rat; conditions: 5 mg/kg iv 15 min before calcium chloride 140 mg/kg; number of animals with event
Method: as §2

[3] = test system: aconitine-induced arrhythmia model in rats; assay: Prophylactic antiarrhythmic activity in aconitine-induced arrhythmia; format: in vivo, rat; conditions: 5 mg/kg iv 15 min before aconitine 20 μg/kg; number of animals with event
Method: as §2

normal ECG in rats = assay: Effect on a normal electrocardiogram in rats; format: in vivo, rat; conditions: 5 mg/kg iv; for HR—heart rate / PQ interval / QRS complex / QTc (Bazzett's formula): mean ± SD; for PQ interval / QRS complex / QTc (Bazzett's formula): in ms (unit assumed)
Method: The procedure was performed to exclude the negative effects of the tested compounds on the normal ECG, according to the method described earlier. […] Firstly, animals were anesthetized with thiopental (75 mg/kg ip). […] The influence on PQ, QTc interval, QRS complex, and heart rate was evaluated. The Bazzett’s formula: QTc = QT/√RR was used to calculate QTc. All the studied compounds were administered at a dose of 5 mg/kg.

[4] = test system: pressor response to methoxamine in rats; assay: Influence on blood vasopressor response to methoxamine in rats; format: in vivo, rat; conditions: 5 mg/kg iv, methoxamine 150 μg/kg before and 5 min after compound
Method: The experiment was performed to establish the effect of the studied derivatives on the pressor response to methoxamine (150 µg/kg, iv), according to the methods described previously. Normotensive Wistar rats were anesthetized with thiopental (75 mg/kg ip). The right carotid artery was cannulated with a polyethylene tube filled with heparin solution using a Datamax apparatus (Columbus Instruments, Columbus, OH, USA). After a 15-min stabilization period, the pressor response to methoxamine before (control) and 5 min after the administration of the tested compounds was measured (Figure 4B). The tested compounds were administered at the lowest hypotensive dose.

[5] = test system: adrenaline-induced arrhythmia model in rats; assay: Therapeutic antiarrhythmic activity in adrenaline-induced arrhythmia; conditions: 1 mg/kg iv immediately after adrenaline 20 µg/kg; number of animals with event
Method: The experiments were carried out according to the method described by Szekeres and Papp [71]. The heart rhythm disturbances, such as extrasystoles, conduction blocks, and bradycardia, were induced by iv injection of adrenaline (20 µg/kg) to anesthetized rats (thiopental, 75 mg/kg, ip). […] The Aspel ASCARD apparatus (standard II lead, with a tape of speed 50 mm/s and voltage calibration of 1 mV = 1 cm) was used for the ECG measurements. The ECG was recorded during the first 2 min and in the 5th, 10th, and 15th min after the adrenaline injection (Figure 3B). The lack or decreased amount of extrasystoles, atrioventricular blocks, and bradycardia in the ECG recordings compared to the control group was the criterion of antiarrhythmic activity [72].
Automated ECG waveform analysis was evaluated as described earlier [55], using Eleven Maze software version 0.1 from Eleven Products Sp. z o.o. […] The software, under expert supervision, recognized and classified the heart rhythm irregularities. It also calculated PQ, QRS, QTc, and rate parameters.

α2-adrenergic receptors = assay: α2-adrenoceptor radioligand binding assay ([3H]-clonidine, rat cortex); conditions: rat cortex tissue, mean ± SEM, n.a. = did not bind at 10^−5 M
Method: as §1

[6] = 0.02 mg/kg iv 15 min before adrenaline 20 μg/kg
[7] = 0.05 mg/kg iv 15 min before adrenaline 20 μg/kg
[8] = 0.1 mg/kg iv 15 min before adrenaline 20 μg/kg
[9] = 0 min (prior to administration)

SMILES: COc1ccccc1N1CCN(CCCCOc2ccccc2C(N)=O)CC1.Cl [JJGW07, 2-{4-[4-(2-metoxyphenyl)piperazin-1-ylo]butoxy}benzamide hydrochloride]
- Adrenergic Receptors—pKi α1 (α1-adrenergic receptors): 7.85 ± 0.01
- Blocks [1, 6]: 6/6
- Bradycardia [1, 6]: 6/6
- Extrasystoles [1, 6]: 5/6
- Mortality [1, 6]: 3/6
- Blocks [1, 7]: 4/6
- Bradycardia [1, 7]: 4/6
- Extrasystoles [1, 7]: 5/6
- Mortality [1, 7]: 0/6
- Blocks [1, 8]: 3/6
- Bradycardia [1, 8]: 3/6
- Extrasystoles [1, 8]: 4/6
- Mortality [1, 8]: 0/6
- ED50 value lower than that of carvedilol ([1]; adrenaline-induced arrhythmia, prophylactic, carvedilol ref 62): 9 fold
- ED50 ([1]; prophylactic, iv 15 min before adrenaline 20 μg/kg, confidence limits in brackets (Litchfield and Wilcoxon)): 0.04 (0.01–0.15) mg/kg
- Blocks [2]: 6/6
- Bradycardia [2]: 6/6
- Extrasystoles [2]: 6/6
- Fibrillations [2]: 6/6
- Mortality [2]: 6/6
- Blocks [3]: 6/6
- Bradycardia [3]: 6/6
- Extrasystoles [3]: 6/6
- Fibrillations [3]: 6/6
- Mortality [3]: 6/6
- effect on the heart rate during the ECG recording (normal ECG in rats): did not affect the heart rate
- HR—heart rate (normal ECG in rats; [9]): 328.7 ± 9.3
- PQ interval (normal ECG in rats; [9]): 40.7 ± 2.1
- QRS complex (normal ECG in rats; [9]): 47.0 ± 6.3
- QTc (Bazzett's formula) (normal ECG in rats; [9]): 196.5 ± 8.0
- HR—heart rate (normal ECG in rats; 5 min): 341.2 ± 11.5
- PQ interval (normal ECG in rats; 5 min): 40.0 ± 2.2
- QRS complex (normal ECG in rats; 5 min): 49.7 ± 7.9
- QTc (Bazzett's formula) (normal ECG in rats; 5 min): 190.8 ± 4.2
- HR—heart rate (normal ECG in rats; 10 min): 333.2 ± 20.9
- PQ interval (normal ECG in rats; 10 min): 40.7 ± 3.7
- QRS complex (normal ECG in rats; 10 min): 48.7 ± 7.2
- QTc (Bazzett's formula) (normal ECG in rats; 10 min): 196.3 ± 9.5
- HR—heart rate (normal ECG in rats; 15 min): 336.3 ± 20.9
- PQ interval (normal ECG in rats; 15 min): 40.7 ± 1.6
- QRS complex (normal ECG in rats; 15 min): 48.7 ± 9.2
- QTc (Bazzett's formula) (normal ECG in rats; 15 min): 192.4 ± 7.5
- attenuation of the methoxamine pressor response [4]: 100%
- Blocks [5]: 2/5
- Bradycardia [5]: 1/5
- Mortality [5]: 0/5

SMILES: Cc1ccc(N(CC2=NCCN2)c2cccc(O)c2)cc1 [Phentolamine, phentolamine, reference compound]
- Adrenergic Receptors—pKi α1 (α1-adrenergic receptors): 8.05 ± 0.01

SMILES: Clc1cccc(Cl)c1N=C1NCCN1 [Clonidine, clonidine, reference compound]
- Adrenergic Receptors—pKi α2 (α2-adrenergic receptors): 8.30 ± 0.01
